Assay results taken from ChEMBL document CHEMBL5120892, “Identification and Characterization of Natural and Semisynthetic Quinones as Aurora Kinase Inhibitors” (J Nat Prod, 2022).
Calls of active or inactive are those of the source. No cut-off for these calls is given here.

How the values were obtained:
K562 = test: Antiproliferative activity against human K562 cells measured after 72 hrs by SRB assay; format: functional
MOLM-13 = test: Antiproliferative activity against human MOLM-13 cells measured after 72 hrs by SRB assay; format: functional
MCF7 = test: Antiproliferative activity against human MCF7 cells measured after 72 hrs by SRB assay; format: functional
HCT-116 [1] = test: Antiproliferative activity against human HCT-116 cells measured after 72 hrs by SRB assay; format: functional
BT-549 = test: Antiproliferative activity against human BT-549 cells measured after 72 hrs by SRB assay; format: functional
MV4-11 = test: Antiproliferative activity against human MV4-11 cells measured after 72 hrs by SRB assay; format: functional
CAL-51 = test: Antiproliferative activity against human CAL-51 cells measured after 72 hrs by SRB assay; format: functional
HCC1954 = test: Antiproliferative activity against human HCC1954 cells measured after 72 hrs by SRB assay; format: functional
A549 [2] = test: Induction of abnormal mitosis in human A549 cells assessed as increase in abrogated mitotic cells at 3 to 6 uM measured after 24 hrs by DAPI staining based immunofluorescence assay; format: functional, cell-based; details: dose 3-6 µM
Aurora kinase A [3] = biological target: T1, Aurora kinase A (Homo sapiens, UniProt O14965); test: Inhibition of Aurora A (unknown origin)
T1 sequence (O14965 whole entry): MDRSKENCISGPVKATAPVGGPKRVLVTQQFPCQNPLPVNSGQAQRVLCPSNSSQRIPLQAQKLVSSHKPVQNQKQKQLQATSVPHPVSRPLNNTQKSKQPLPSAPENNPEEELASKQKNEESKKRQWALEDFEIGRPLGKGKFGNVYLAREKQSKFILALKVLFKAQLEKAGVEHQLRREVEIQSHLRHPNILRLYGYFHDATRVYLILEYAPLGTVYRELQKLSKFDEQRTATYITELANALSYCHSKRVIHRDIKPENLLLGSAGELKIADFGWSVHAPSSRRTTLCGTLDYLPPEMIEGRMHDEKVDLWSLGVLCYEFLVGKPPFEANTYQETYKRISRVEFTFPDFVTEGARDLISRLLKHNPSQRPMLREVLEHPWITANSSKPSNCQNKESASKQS

A549 [4] = test: Induction of abnormal mitosis in human A549 cells assessed as formation of aberrant spindle assembly at 3 to 6 uM measured after 24 hrs by DAPI staining based immunofluorescence assay; format: functional, cell-based; details: dose 3-6 µM
Aurora kinase B [5] = biological target: T2, Aurora kinase B (Homo sapiens, UniProt Q96GD4); test: Inhibition of Aurora B (unknown origin)
T2 sequence (Q96GD4 whole entry): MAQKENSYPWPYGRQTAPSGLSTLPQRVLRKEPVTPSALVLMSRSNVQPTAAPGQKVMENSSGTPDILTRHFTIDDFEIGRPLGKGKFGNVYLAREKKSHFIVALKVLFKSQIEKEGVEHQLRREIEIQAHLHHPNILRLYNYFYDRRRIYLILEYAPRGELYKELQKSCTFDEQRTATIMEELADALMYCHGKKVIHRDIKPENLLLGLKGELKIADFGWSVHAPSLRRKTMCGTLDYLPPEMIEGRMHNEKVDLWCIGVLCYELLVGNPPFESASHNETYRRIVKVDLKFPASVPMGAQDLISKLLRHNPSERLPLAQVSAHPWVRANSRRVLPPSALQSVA

A549 [6] = test: Induction of abnormal mitosis in human A549 cells assessed as formation of single spindle pole at 3 to 6 uM measured after 24 hrs by CDK5Rap2 staining based immunofluorescence assay; format: functional, cell-based; details: dose 3-6 µM
HCT-116 [7] = test: Induction of apoptosis in human HCT-116 cells assessed as early apoptotic cells at 2.5 uM measured after 24 hrs by Annexin V-FITC/propidium iodide staining based flow cytometry (reference value: 2.92%); format: functional
HCT-116 [8] = test: Induction of apoptosis in human HCT-116 cells assessed as late apoptotic cells at 2.5 uM measured after 24 hrs by Annexin V-FITC/propidium iodide staining based flow cytometry (reference value: 0.02%); format: functional
HCT-116 [9] = test: Induction of apoptosis in human HCT-116 cells assessed as late apoptotic cells at 5 uM measured after 24 hrs by Annexin V-FITC/propidium iodide staining based flow cytometry (reference value: 0.02%); format: functional
Homo sapiens [10] = species on record: Homo sapiens; test: Selectivity ratio of IC50 for inhibition of Aurora B (unknown origin) to IC50 for inhibition of Aurora A (unknown origin)
[11] = biological target: T3, Aurora kinase A (Homo sapiens) (UniProt O14965); test: Binding affinity to Aurora A (unknown origin) expressed in Escherichia coli Rosetta 2(DE3) at 1 mM by STD NMR analysis
T3 sequence (whole entry): T1 sequence (O14965 whole entry)

HCT-116 [12] = test: Induction of apoptosis in human HCT-116 cells assessed as increase in cleaved PARP expression at 1.25 to 5 uM measured after 24 hrs by Western blot analysis; format: functional, cell-based; details: dose 1.25-5 µM
A549 [13] = test: Induction of abnormal mitosis in human A549 cells assessed as formation of misaligned chromosome at 3 to 6 uM measured after 24 hrs by DAPI staining based immunofluorescence assay; format: functional, cell-based; details: dose 3-6 µM
HCT-116 [14] = test: Induction of apoptosis in human HCT-116 cells assessed as early apoptotic cells at 5 uM measured after 24 hrs by Annexin V-FITC/propidium iodide staining based flow cytometry (reference value: 2.92%); format: functional
[15] = biological target: T3, Aurora kinase A (Homo sapiens); test: Inhibition of Aurora A (122 to 403 residues) (unknown origin) expressed in Escherichia coli Rosetta 2(DE3) assessed as reduction in TACC3 phosphorylation at Ser 558 residue at 25 uM using TACC3 (519 to 838 residues) as substrate measured after 30 mins by Western blot analysis
Aurora kinase B [16] = biological target: T2, Aurora kinase B; test: Inhibition of Aurora B in human HCT-116 cells using histone H3 as substrate measured after 2 hrs by Western blot analysis; format: cell-based
Homo sapiens [17] = species on record: Homo sapiens; test: Selectivity ratio of IC50 for inhibition of Aurora B (unknown origin) to IC50 for inhibition of Aurora A (unknown origin) expressed in Escherichia coli Rosetta 2(DE3)
[18] = biological target: T3, Aurora kinase A (Homo sapiens); test: Inhibition of Aurora A in human HCT-116 cells using TACC3 as substrate measured after 2 hrs by Western blot analysis; format: cell-based; details: dose 1.56-50 µM, DDE = dose-dependent effect
Aurora kinase A [19] = biological target: T1, Aurora kinase A; test: Inhibition of Aurora A (122 to 403 residues) (unknown origin) expressed in Escherichia coli Rosetta 2(DE3) assessed as reduction in TACC3 phosphorylation at Ser 558 residue using TACC3 (519 to 838 residues) as substrate measured after 30 mins by Western blot analysis

SMILES	GI50 (K562) [µM]	GI50 (MOLM-13) [µM]	GI50 (MCF7) [µM]	GI50 (HCT-116 [1]) [µM]	GI50 (BT-549) [µM]	GI50 (MV4-11) [µM]	GI50 (CAL-51) [µM]	GI50 (HCC1954) [µM]	IC50 (Aurora kinase A [3]) [µM]	IC50 (Aurora kinase B [5]) [µM]	Ratio IC50 (Homo sapiens [10])	inhibition [15]	further results
COC(=O)/C=C(/CC1=C(CCC(=O)CC2(C)OCCO2)C(=O)c2ccccc2C1=O)OC	9.7	16.8	28.3	21.5	24	43.1	16.3	19.1	–	–	–	–	–
O=C1c2ccccc2C(=O)c2c(O)c(CCl)cc(O)c21	2.8	3.7	0.59	0.22	0.4	6.3	0.15	0.61	0.12	0.41	3.42	–	Activity (A549 [2]): Active; Activity (A549 [4]): Active; Activity (A549 [6]): Active; Activity (HCT-116 [7]): 11.27%; Activity (HCT-116 [8]): 8.31%; Activity (HCT-116 [9]): 53.93%; Activity [11]: Active; Activity (HCT-116 [12]): Active; Activity (A549 [13]): Active; Activity (HCT-116 [14]): 17.6%
O=C1C=CC(=O)c2c(O)cccc21 [JUGLONE]	> 100	21.9	32.6	4.2	> 100	0.06	> 100	6.44	0.05	0.62	12.4	Active	–
CC1(C)CCC2=C(O1)c1ccccc1C(=O)C2=O [LAPACHONE]	41	34.5	12.2	12.9	11.4	70.1	8.3	31.8	–	–	–	–	–
CC1=C(Br)C(=O)c2ccccc2C1=O	3.4	< 0.01	19.1	3.4	4.9	3.3	1.5	1.4	0.09	0.96	10.7	Active	–
CC1=CC(=O)c2cccc(O)c2C1=O	1.3	4.1	1.4	0.46	2.7	26.5	2.5	0.34	–	–	–	–	–
CC1=CC(=O)c2c(O)cc(C)c(C(=O)C(Cl)Cl)c2C1=O	3.7	3.7	25.8	4.3	8.5	0.86	1.9	1.6	–	–	–	–	–
CC=CCC1=C(O)C(=O)c2ccccc2C1=O	> 100	> 100	> 100	41.5	47	79.1	54.1	> 100	–	–	–	–	–
O=C1C=CC(=O)c2c(O)ccc(O)c21 [NAPHTHAZALIN]	1.7	0.28	0.43	0.16	0.43	0.19	0.56	0.49	–	0.35	–	Active	Activity (A549 [2]): Active; Activity (A549 [4]): Active; inhibition (Aurora kinase B [16]): Active; Ratio IC50 (Homo sapiens [17]): 3.89; inhibition [18]: Dde; Activity (A549 [6]): Active; Activity (HCT-116 [7]): 6.85%; Activity (HCT-116 [8]): 3.78%; Activity (HCT-116 [9]): 21.56%; IC50 (Aurora kinase A [19]): 0.09 µM; Activity [11]: Active; Activity (HCT-116 [12]): Active; Activity (A549 [13]): Active; Activity (HCT-116 [14]): 6.36%
O=C1C=C(Cl)C(=O)c2c(O)cccc21	3.2	1.7	15.6	4.1	9.3	0.18	12.7	0.99	0.15	1.8	12	Active	–
COc1ccc2c(c1)C(=O)C=CC2=O	2.9	4.1	28.9	8.3	34	4.3	2.8	2.2	–	–	–	–	–
